Reference: patent US7091025B2, “Malathion carboxylesterase” (priority 1995, dated 2006)
Read-outs that look alike come from different tables or passages of the source.

Key:
[1] = system: whole fly homogenates of L. cuprina strains; assay: Chlorfenvinphos hydrolysis by whole fly homogenates; format: biochemical
Protocol: Enzyme samples were diluted in 0.1M imidazole-HCl buffer pH 7.0 (“imidazole buffer”) to a final volume of 50 μl. Reactions were started by the addition 0.5 μl of (^14C-ethyl)-chlorfenvinphos (CVP, 306.5 MBq/mmole, Internationale Isotope Munchen) from a 7.5 mM stock solution in ethanol. The reaction was incubated at 30° C. and stopped by the addition of 300 μl dichloromethane and 150 μl of water followed by vigorous vortex mixing. The reactions were centrifuged to separate phases and 150 μl of the upper, aqueous phase was taken for scintillation counting to determine the amount of ^14C-diethylphosphate produced by hydrolysis of CVP. Incubations with boiled enzyme were also performed to control for non-enzymic hydrolysis of CVP.
Whole fly homogenates of malathion resistant (strains RM-8, 60NE 1.1, 4.2, Beverly 6.2, Hampton Hill 6.1, Hampton Hill 6.2, Woodside 5.2, Rop Rmal 1, M22.2 6.3, M27.1 4.1), diazinon resistant (Gunning 107, Inverell 22, Q4, RM2.6, Llandillo 103, Sunbury 5.2) and susceptible (LBB 101, Llandillo 104, LS2) strains of L. cuprina were tested for esterase-mediated hydrolysis of CVP, a general OP (ie not a malathion-type OP). All 10 malathion resistant strains had greater CVP hydrolytic activities (1.5–3.0 pmol/min/mg) than the 3 susceptible strains (0.5–1.0 pmol/min/mg, but less activity than the 6 diazinon resistant strains (8.2–30.0 pmol/min/mg).

[2] = system: adult female L. cuprina; format: in vivo; conditions: for RF (Dz/para R): ratio of the LD50 of Llandillo 103 with the LD50 of LS2 / RF (Mal R): ratio of the LD50 of Woodside 5.2 with the LD50 of LS2: L. cuprina, NS = not significantly different from unity; for LD50 LS2 (OP Susceptible), with 95% confidence limits: strain LS2, topical in dioctylphthalate; for LD50 LS2 (OP Susceptible), with 95% confidence limits / LD50 Llandillo 103 (Dz/para Resistant), with 95% confidence limits / LD50 Woodside 5.2 (Mal Resistant), with 95% confidence limits: mortality at 24 hours; for LD50 Llandillo 103 (Dz/para Resistant), with 95% confidence limits: strain Llandillo 103, topical; for LD50 Woodside 5.2 (Mal Resistant), with 95% confidence limits: strain Woodside 5.2, topical
Text: (§1) The following organophosphorus compounds were used: diazinon (O,O-diethyl O-2-isopropyl-6-methylpyrimidin-4-yl phosphorothioate, 91%, Mallinckrodt), parathion-methyl (O,O-dimethyl O-4-nitrophenyl phosphorothioate, 97.0%, Bayer), parathion (O,O-diethyl O-4-nitrophenyl phosphorothioate, 99%, Pestanal grade, Riedel-de-Haën), fenthion (O,O-dimethyl O-[3-methyl-4-(methylthio)phenyl]phosphorothioate, 98.8%, Bayer), fenthion-ethyl (O,O-diethyl O-[3-methyl-4-(methylthio)phenyl] phosphorothioate, a gift from Dr. G. Levot), dichlorvos (2,2-dichlorovinyl dimethyl phosphate, 99%, Chem Service), diethyl-dichlorvos (2,2-dichlorovinyl diethyl phosphate, a gift from Dr. J. Desmarchelier), di-isopropyl-dichlorvos (2,2-dichlorovinyl di-isopropyl phosphate, a gift from Dr. J. Desmarchelier), malathion (S-1,2-bis(ethoxycarbonyl)ethyl O,O-dimethyl phosphorodithioate, technical grade, Nufarm), isopropyl malathion (S-1,2-bis(ethoxycarbonyl)ethyl O,O-di-isopropyl phosphorodithioate, a gift from Dr. J. Desmarchelier).
(§2) The toxicity of OPs in adult female L. cuprina was determined 3 or 4 days post-eclosion by application of OPs to the scutellum in 0.7 μl dioctylphthalate (Busvine, J. R., Bell, J. D. and Guneidy, A. M., Bulletin of Entomological Research 54: 589, 1963;; Townsend, M. G. and Busvine, J. R., Entomology Experimental and Applied 12: 243, 1969). Each OP was applied to at least 20 flies at each of at least 5 different concentrations, spanning the dose causing 50% mortality (LD50). Control groups were treated with solvent but no OP. Mortality was determined 24 hours later. Data were fitted to the probit curve using the Probit Or LOgit (POLO-PC) computer program (LeOra Software, 1987).

[3] = system: M. domestica; conditions: cited from earlier work; for Resistance factor of M. domestica (in parentheses), Dz/para resistance type / Resistance factor of M. domestica (in parentheses), malathion resistance type: Bell and Busvine 1967, Townsend and Busvine 1969
[4] = system: adult L. cuprina, Woodside 5.2 strain (Mal Resistant); format: in vivo, Lucilia cuprina
Text: as §1, §2
(§3) LD50s of 10 OPs were determined for the Woodside 5.2 strain (homozygous for a malathion resistance allele of LcαE7) and the Llandillo 103 strain (homozygous for a parathion/diazinon resistance allele of LcαE7). LD50s were also determined for the OP susceptible LS2 strain in order to calculate resistance factors (Table 8).

[5] = system: adult L. cuprina, Llandillo 103 strain (Dz/para Resistant); assay: toxicity of OPs in adult female L. cuprina, Llandillo 103 strain; format: in vivo, Lucilia cuprina
Text: as §1, §2, §3

[6] = system: CCCC(=O)Oc1cccc2ccccc12; assay: α-naphthyl butyrate hydrolysis, expressed malathion susceptible LcαE7 product; format: biochemical, Lucilia cuprina; conditions: other: α-NB 6-200 μM, 25° C., pH 8.0
Protocol: (§4) The in vitro expression of the OP susceptible allele of LcαE7 (clone Lc743) is described in patent application PCT/AU 95/00016 (“Enzyme based bioremediation”).
(§5) The initial rates of reactions between cell extracts containing the expressed products of the malathion resistant and susceptible LcαE7 alleles and α-naphthyl acetate (α-NA) were determined at 25° C. using a recording spectrophotometer and the method of Mastrapaolo and Yourno (Analytical Biochemistry 115: 188, 1981). 6–200 μM α-NA dissolved in 10 μl of 2-methoxyethanol was added to 0.1 M Tris-HCl pH 8.0 (980 μl) in a quartz cuvette. α-Naphthyl acetate is slowly hydrolysed in water so a background rate was recorded before starting the enzymic reaction by the addition of 10 μl of diluted cell extract. Control reactions were performed with extracts of both uninfected cells and Bacpac 6 infected cells.
As described above for α-NA hydrolysis except that 6–200 μM α-naphthyl butyrate (α-NB) was used instead of α-NA.
(§6) Km and Vmax were calculated for both enzymes. Kcat was then calculated from the Vmax and the molarity of the LcαE7 products in their respective cell extracts (determined above).

[7] = system: CC(=O)Oc1cccc2ccccc12; assay: α-naphthyl acetate hydrolysis, expressed malathion susceptible LcαE7 product; format: biochemical, Lucilia cuprina; conditions: other: α-NA 6-200 μM, 25° C., pH 8.0
Protocol: as §4, §5, §6

Compound	RF (Dz/para R): ratio of the LD50 of Llandillo 103 with the LD50 of LS2 [2]	RF (Mal R): ratio of the LD50 of Woodside 5.2 with the LD50 of LS2 [2]	LD50 LS2 (OP Susceptible), with 95% confidence limits [2]	LD50 Llandillo 103 (Dz/para Resistant), with 95% confidence limits [2]	LD50 Woodside 5.2 (Mal Resistant), with 95% confidence limits [2]	Resistance factor of M. domestica (in parentheses), Dz/para resistance type [3]	Resistance factor of M. domestica (in parentheses), malathion resistance type [3]	further results
CCOP(=O)(OCC)O/C(=C\Cl)c1ccc(Cl)cc1Cl [CVP, chlorfenvinphos]	–	–	–	–	–	–	–	CVP hydrolytic activity ([1]; whole fly homogenates of 3 susceptible strains): 0.5 to 1.0 pmol/min/mg; CVP hydrolytic activity ([1]; whole fly homogenates of 6 diazinon resistant strains): 8.2 to 30.0 pmol/min/mg; CVP hydrolytic activity ([1]; whole fly homogenates of 10 malathion resistant strains): 1.5 to 3.0 pmol/min/mg
CCOP(=S)(OCC)Oc1cc(C)nc(C(C)C)n1 [Diazinon, O,O-diethyl O-2-isopropyl-6-methylpyrimidin-4-yl phosphorothioate]	10	5	57 (40–79), ng/fly	550 (490–630), ng/fly	270 (240–300), ng/fly	20	2	–
COP(=O)(OC)OC=C(Cl)Cl [Dichlorvos, 2,2-dichlorovinyl dimethyl phosphate]	4	7	41 (35–51), ng/fly	150 (95–190), ng/fly	270 (210–340) ng/fly	3	6	resistance factor towards dimethyl OP vs its diethyl analogue ([4]; Woodside 5.2): about two- to five-fold greater resistance factors
CCOP(=O)(OC=C(Cl)Cl)OCC [Ethyl Dichlorvos, 2,2-dichlorovinyl diethyl phosphate]	7	3	360 (300–420), ng/fly	2370 (2320–2410), ng/fly	1100 (700–1500) ng/fly	–	–	resistance factor towards diethyl OP vs its dimethyl analogue [5]: about two-fold greater resistance factors
COP(=S)(OC)Oc1ccc(SC)c(C)c1 [Fenthion, O,O-dimethyl O-[3-methyl-4-(methylthio)phenyl]phosphorothioate]	3 (3)	5	61 (42–87), ng/fly	210 (180–240) ng/fly	320 (210–490) ng/fly	3 (3)	7	resistance factor towards dimethyl OP vs its diethyl analogue ([4]; in vivo): about two- to five-fold greater resistance factors
CCOP(=S)(OCC)Oc1ccc(SC)c(C)c1 [Fenthion-ethyl, O,O-diethyl O-[3-methyl-4-(methylthio)phenyl] phosphorothioate]	2	2	330 (290–370) ng/fly	690 (570–830) ng/fly	730 (660–870) ng/fly	–	–	resistance factor towards diethyl OP vs its dimethyl analogue [5]: no significant difference
CC(C)OP(=O)(OC=C(Cl)Cl)OC(C)C [Isopropyl Dichlorvos, 2,2-dichlorovinyl di-isopropyl phosphate]	–	3	3500 (2200–4800), ng/fly	4600 (3400–5900) ng/fly	10200 (8800–12000) ng/fly	–	–	–
CCOC(=O)CC(SP(=S)(OC(C)C)OC(C)C)C(=O)OCC (stereo not drawn) [Isopropyl Malathion, S-1,2-bis(ethoxycarbonyl)ethyl O,O-di-isopropyl phosphorodithioate]	–	1.8	3600 (2700–4900), ng/fly	4900 (3700–6200), ng/fly	6400 (5900–7100), ng/fly	–	4	–
CCOC(=O)CC(SP(=S)(OC)OC)C(=O)OCC (stereo not drawn) [Malathion, S-1,2-bis(ethoxycarbonyl)ethyl O,O-dimethyl phosphorodithioate]	–	> 130	550 (480–610), ng/fly	490 (360–600) ng/fly	4 ng/fly	2	157	fold greater doses survived by flies with malathion resistance alleles of αE7 ([2]; in vivo): more than 100 fold; resistance to malathion of malathion resistant M. domestica strains ([3]; literature): > 100 fold
CCOP(=S)(OCC)Oc1ccc([N+](=O)[O-])cc1 [Parathion, O,O-diethyl O-4-nitrophenyl phosphorothioate]	20	6	52 (48–55), ng/fly	1050 (890–1280), ng/fly	290 (270–310), ng/fly	35	3	resistance factor towards diethyl OP vs its dimethyl analogue [5]: about two-fold greater resistance factors
COP(=S)(OC)Oc1ccc([N+](=O)[O-])cc1 [Parathion-methyl, O,O-dimethyl O-4-nitrophenyl phosphorothioate]	12	27	16 (11–20), ng/fly	185 (141–244), ng/fly	430 (390–490), ng/fly	9	10	resistance factor towards dimethyl OP vs its diethyl analogue ([4]; Woodside 5.2): about two- to five-fold greater resistance factors
Lucilia cuprina LcαE7 (esterase E3) gene product, malathion susceptible allele (strain LS2; clone Lc743), Trp at position 251 (Lucilia cuprina)	–	–	–	–	–	–	–	Km [6]: 20 ± 5 µM; kcat [6]: 300 ± 33.3 s⁻¹; Km [7]: 70 ± 5 µM; kcat [7]: 183 ± 5 s⁻¹
